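Method: 48-hour compound exposure of cells in 96-well plates, five concentrations, linear interpolation of endpoints. At the GI50, growth is halved. TGI: total growth inhibition.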
Experiments:
Experiment in all cases: NCI tumour cell line growth inhibition, 48 h
IGROV1 ovarian = system: IGROV1 ovarian
SNB-78 CNS = system: SNB-78 CNS
MOLT-4 leukemia = system: MOLT-4 leukemia
SK-MEL-2 melanoma = system: SK-MEL-2 melanoma
DMS 273 small cell lung = system: DMS 273 small cell lung
TK-10 renal = system: TK-10 renal
M19-MEL melanoma = system: M19-MEL melanoma
DLD-1 colon = system: DLD-1 colon
LXFL 529 NSCLC = system: LXFL 529 NSCLC
HOP-18 NSCLC = system: HOP-18 NSCLC
XF 498 CNS = system: XF 498 CNS
SW-620 colon = system: SW-620 colon
T-47D breast = system: T-47D breast

CC1=C2C(=CC(C)(C)C2O)C(=O)C(C)(O)C12CC2 (stereo unspecified)
TGI (IGROV1 ovarian): 0.132 µM
TGI (SNB-78 CNS): 0.226 µM
TGI (MOLT-4 leukemia): 0.0245 µM
GI50 (SK-MEL-2 melanoma): 0.0108 µM
TGI (SK-MEL-2 melanoma): 0.0283 µM
TGI (DMS 273 small cell lung): 0.025 µM
TGI (TK-10 renal): 0.14 µM
TGI (M19-MEL melanoma): 0.0861 µM
TGI (DLD-1 colon): 0.0447 µM
TGI (LXFL 529 NSCLC): 0.114 µM
TGI (HOP-18 NSCLC): 0.179 µM
TGI (XF 498 CNS): 0.0309 µM
TGI (SW-620 colon): 0.0752 µM

Cc1ccc(N2C(=O)C3C=CC(n4[nH]c(=O)n(Cc5ccccc5)c4=O)CC3C2=O)cc1 (stereo unspecified)
TGI (IGROV1 ovarian): > 100 µM
TGI (SNB-78 CNS): > 100 µM
TGI (MOLT-4 leukemia): > 100 µM
TGI (SK-MEL-2 melanoma): > 100 µM
TGI (DMS 273 small cell lung): > 100 µM
TGI (TK-10 renal): > 100 µM
TGI (M19-MEL melanoma): > 100 µM
TGI (DLD-1 colon): > 100 µM
TGI (LXFL 529 NSCLC): > 100 µM
TGI (HOP-18 NSCLC): > 100 µM
TGI (XF 498 CNS): > 100 µM
TGI (SW-620 colon): > 100 µM

COC(=O)CCC(NC(=S)N/N=C/c1ccco1)C(=O)OC (stereo unspecified)
TGI (IGROV1 ovarian): > 100 µM
TGI (SNB-78 CNS): > 100 µM
TGI (SK-MEL-2 melanoma): > 100 µM
TGI (DMS 273 small cell lung): > 100 µM
TGI (TK-10 renal): > 100 µM
TGI (M19-MEL melanoma): > 100 µM
TGI (DLD-1 colon): > 100 µM
TGI (LXFL 529 NSCLC): > 100 µM
TGI (HOP-18 NSCLC): > 100 µM
TGI (XF 498 CNS): > 100 µM
TGI (SW-620 colon): > 100 µM

Cc1cccc(C(C)C)c1NC(=O)CC1C(=O)Nc2ccccc2S1(=O)=O (stereo unspecified)
TGI (IGROV1 ovarian): > 51 µM
TGI (SNB-78 CNS): > 79.3 µM
TGI (MOLT-4 leukemia): 10.2 µM
TGI (SK-MEL-2 melanoma): > 62 µM
TGI (DMS 273 small cell lung): 20.5 µM
TGI (TK-10 renal): 70.1 µM
TGI (M19-MEL melanoma): > 57.4 µM
TGI (DLD-1 colon): > 45.6 µM
TGI (LXFL 529 NSCLC): 35.5 µM
TGI (HOP-18 NSCLC): 70.8 µM
TGI (XF 498 CNS): > 59.9 µM
TGI (SW-620 colon): 30.4 µM

[N-]=[N+]=NC(CI)c1cn([C@H]2C[C@H](O)[C@@H](CO)O2)c(=O)[nH]c1=O (stereo partly specified)
TGI (IGROV1 ovarian): > 100 µM
TGI (SNB-78 CNS): > 100 µM
TGI (MOLT-4 leukemia): > 100 µM
TGI (SK-MEL-2 melanoma): > 100 µM
TGI (DMS 273 small cell lung): > 100 µM
TGI (TK-10 renal): > 100 µM
TGI (M19-MEL melanoma): > 100 µM
TGI (DLD-1 colon): > 100 µM
TGI (LXFL 529 NSCLC): > 100 µM
TGI (HOP-18 NSCLC): > 100 µM
TGI (XF 498 CNS): > 100 µM
TGI (SW-620 colon): > 100 µM

CN(/N=C/c1cccc2cccnc12)c1ccccc1
TGI (IGROV1 ovarian): > 100 µM
TGI (SNB-78 CNS): > 100 µM
TGI (MOLT-4 leukemia): > 100 µM
TGI (SK-MEL-2 melanoma): > 100 µM
TGI (DMS 273 small cell lung): > 100 µM
TGI (TK-10 renal): > 100 µM
TGI (M19-MEL melanoma): > 100 µM
TGI (DLD-1 colon): > 100 µM
TGI (LXFL 529 NSCLC): > 100 µM
TGI (HOP-18 NSCLC): > 100 µM
TGI (XF 498 CNS): > 100 µM
TGI (SW-620 colon): > 100 µM

COc1c2c(nc3ccccc13)-c1cc3c(c(=O)n1C2)COC(=O)C3(O)CC(=O)N1CCOCC1 (stereo unspecified)
TGI (IGROV1 ovarian): 98.7 µM
TGI (SNB-78 CNS): > 97.1 µM
TGI (MOLT-4 leukemia): 5.03 µM
TGI (SK-MEL-2 melanoma): 64.6 µM
TGI (DMS 273 small cell lung): 12.4 µM
TGI (TK-10 renal): > 100 µM
TGI (M19-MEL melanoma): 44.8 µM
TGI (DLD-1 colon): > 100 µM
TGI (LXFL 529 NSCLC): > 100 µM
TGI (HOP-18 NSCLC): > 79.2 µM
TGI (XF 498 CNS): 33.9 µM
TGI (SW-620 colon): > 100 µM
TGI (T-47D breast): 72.3 µM

O=S1(=O)OCCOS(=O)(=O)C1Cc1ccccc1
TGI (IGROV1 ovarian): 93.3 µM
TGI (SNB-78 CNS): > 100 µM
TGI (MOLT-4 leukemia): > 100 µM
TGI (DMS 273 small cell lung): > 100 µM
TGI (TK-10 renal): > 100 µM
TGI (M19-MEL melanoma): > 100 µM
TGI (DLD-1 colon): > 100 µM
TGI (HOP-18 NSCLC): 50 µM
TGI (XF 498 CNS): > 100 µM
TGI (SW-620 colon): > 100 µM

C[C@]12CCC3[C@@H](CC[C@@H]4c5nonc5CC[C@]34C)C1C/C(=N/O)C2=O (stereo partly specified)
TGI (IGROV1 ovarian): > 100 µM
TGI (SNB-78 CNS): > 100 µM
TGI (MOLT-4 leukemia): > 100 µM
TGI (SK-MEL-2 melanoma): 52 µM
TGI (DMS 273 small cell lung): > 100 µM
TGI (TK-10 renal): > 100 µM
TGI (M19-MEL melanoma): > 100 µM
TGI (LXFL 529 NSCLC): > 100 µM
TGI (HOP-18 NSCLC): > 100 µM
TGI (XF 498 CNS): 40.4 µM
TGI (SW-620 colon): > 100 µM

Reference: PubChem BioAssay (NCI)
